Assay results published in patent publication US8813566B2, “Instrumentation and analytical techniques suitable for broadband acoustic resonance dissolution spectroscopy” (University College Cork—National University of Ireland, priority 2008, dated 2014).

Assay: Broadband acoustic resonance dissolution spectroscopy (BARDS) dissolution profile in distilled water
Assay type: physicochemical
Conditions: 0.4M in 100 ml of double distilled water
Experimental: The inside of the glass was cleaned with distilled water whilst ensuring the outside of the glass is dry with particular care taken to prevent moisture from affecting the microphone. The microphone is placed on the outside of the glass, 5 cm above the 100 ml volume of water and 1.8 cm from the top of the glass. Securing the microphone above the volume line delivers a better spectrum and the distances aid in reproducibility. The microphone and the wire connection to the glass are secured with adhesive tape. 100 mls of distilled water is accurately poured into the glass and set stirring using a magnetic stirrer. The stirring solution is recorded for 30 seconds prior to addition of the analyte compound to record the resonant frequencies of the vessel (spectrum background). The concentration of the analyte compound is 1.37 M where saturation levels allow. The analyte compound is added carefully all at once from a weighing boat to the stirring solution, with care taken to ensure no sample is lost to the glass sides. The sample spectrum is recorded for a total of 800 seconds. Raw data was saved in .wav format files. From these files the spectrum can be replayed acoustically with any media program. This allows data points to be selected using the mouse cursor and saved in a text format file for transplantation into a data manipulation program such as Excel™ or Sigmaplot™. […]

Compound: O=S(=O)([O-])[O-].[Cu+2] [anhydrous form, Anhydrous copper sulphate]
- time required for complete dissolution: 75 s
